This assay has as its system RSV A2. In words: Screening for RSV inhibition using Viral ToxGlo assay (cytopathic effect inhibition in HEp-2 cells). It is filed as cell-based, Respiratory Syncytial Virus (RSV). The note with it: human respiratory syncytial virus; RSV A2 in HEp-2 cells, MOI 0.5, 72h p.i., cytopathic effect inhibition relative to virus control, Viral ToxGlo luminescence. The method, boiled down:
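HEp-2 cells in 2% FBS medium infected with RSV A2 right after compound addition (max 1% DMSO), uninfected wells used for cytotoxicity. After 72 h p.i. at 37 °C/5% CO2, cell viability read by Viral ToxGlo luminescence as measure of cytopathic effect.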
A general note: Damage to the host cells serves as the signal in cytopathic effect assays.
Turning to `CC(C)(C)C1(NC(=O)c2cccc(Nc3ccc(C(=O)N=C4NCCN4)cc3C3CC3)c2)CC1` [Compound 111, 4-({3-[(1-tert-butylcyclopropyl)carbamoyl]phenyl}amino)-3-cyclopropyl-N-[(2Z)-imidazolidin-2-ylidene]benzamide], the concentration giving a half-maximal response (EC50) – broadly, the concentration needed to bring the measured effect to its halfway point – is 30.4 nM.

For `CC(C)NC(=O)c1cc(C#N)cc(Nc2ccc(C(=O)N=C3NCCN3)cc2C2CC2)c1` [Compound 112, 4-({3-cyano-5-[(propan-2-yl)carbamoyl]phenyl}amino)-3-cyclopropyl-N-[imidazolidin-2-ylidene]benzamide], the EC50 is 710 nM.

`CC(C)C(=O)Nc1cccc(Nc2ccc(C(=O)N=C3NCCN3CC(F)F)cc2C2CC2)c1` [Compound 113, 3-cyclopropyl-N-[1-(2,2-difluoroethyl)imidazolidin-2-ylidene]-4-{[3-(2-methylpropanamido)phenyl]amino}benzamide]: the EC50 was found to be 59.9 nM.

On to `O=C(N=C1NCCN1)c1ccc(Nc2cccc(C(=O)NC3(C(F)(F)F)CC3)c2Cl)c(C2CC2)c1` [Compound 114, 4-[(2-chloro-3-{[1-(trifluoromethyl)cyclopropyl]carbamoyl}phenyl)amino]-3-cyclopropyl-N-[imidazolidin-2-ylidene]benzamide], for which the EC50 came to 32.6 nM.

For the molecule `O=C(N=C1NCCN1)c1ccc(Nc2cccc(C(=O)N3CCOCC3)c2C(F)(F)F)c(C2CC2)c1` [Compound 115, 3-cyclopropyl-N-[imidazolidin-2-ylidene]-4-{[3-(morpholine-4-carbonyl)-2-(trifluoromethyl)phenyl]amino}benzamide], the EC50 was determined as 29.6 nM.

With `O=C(N=C1NCCN1)c1ccc(Nc2cccc(C(=O)NC3CC3)c2C(F)(F)F)c(C2CC2)c1` [Compound 116, 3-cyclopropyl-4-f{[3-(cyclopropylcarbamoyl)-2-(trifluoromethyl)phenyl]amino}-N—[imidazolidin-2-ylidene]benzamide], the EC50 was found to be 131 nM.

Consider `CC1(NC(=O)c2cccc(Nc3c(F)cc(C(=O)N=C4NCCN4)cc3C3CC3)c2)CC1` [Compound 117, 3-cyclopropyl-5-fluoro-N-[imidazolidin-2-ylidene]-4-({3-[(1-methylcyclopropyl)carbamoyl]phenyl}amino)benzamide], for which the EC50 was 5.6 nM.

As for `O=C(N=C1NCCN1)c1ccc(Nc2cc(F)cc(C(=O)N3CCOCC3)c2Cl)c(C2CC2)c1` [Compound 118, 4-{[2-chloro-5-fluoro-3-(morpholine-4-carbonyl)phenyl]amino}-3-cyclopropyl-N-[imidazolidin-2-ylidene]benzamide], the EC50 was found to be 27 nM.

`O=C(N=C1NCCN1)c1cc(F)c(Nc2cccc(C(=O)N3CCOCC3)c2)c(C2CC2)c1` [Compound 119, 3-cyclopropyl-5-fluoro-N-[imidazolidin-2-ylidene]-4-{[3-(morpholine-4-carbonyl)phenyl]amino}benzamide]: the EC50 is 108 nM.

`O=C(N=C1NCCN1)c1ccc(Nc2cccc(C(=O)N3C[C@@H]4C[C@H]3CO4)c2Cl)c(C2CC2)c1` [Compound 120, 4-({2-chloro-3-[(1S,4S)-2-oxa-5-azabicyclo[2.2.1]heptane-5-carbonyl]phenyl}amino)-3-cyclopropyl-N—[imidazolidin-2-ylidene]benzamide]: the EC50 was 19.5 nM.

Turning to `O=C(N=C1NCCN1)c1ccc(Nc2cccc(C(=O)N3CCOC(C(F)(F)F)C3)c2Cl)c(C2CC2)c1` (stereo not shown) [Compound 121, 4-({2-chloro-3-[2-(trifluoromethyl)morpholine-4-carbonyl]phenyl}amino)-3-cyclopropyl-N—[imidazolidin-2-ylidene]benzamide], the EC50 was determined as 5.1 nM.

For the molecule `O=C(N=C1NCCN1)c1ccc(Nc2cccc(C(=O)N3CCOCC3C(F)(F)F)c2Cl)c(C2CC2)c1` (stereo not shown) [Compound 122, 4-({2-chloro-3-[3-(trifluoromethyl)morpholine-4-carbonyl]phenyl}amino)-3-cyclopropyl-N—[imidazolidin-2-ylidene]benzamide], the EC50 worked out at 7.8 nM.

For the molecule `CC1(NC(=O)c2ccnc(Nc3ccc(C(=O)N=C4NCCN4)cc3C3CC3)c2Cl)CC1` [Compound 123, 3-chloro-2-[(2-cyclopropyl-4-{[imidazolidin-2-ylidene]carbamoyl}phenyl)amino]-N-(1-methylcyclopropyl)pyridine-4-carboxamide], the EC50 amounted to 83 nM.

With `CC1(NC(=O)c2cccc(Nc3c(F)cc(C(=O)N=C4NCCN4)cc3C3CCCO3)c2)CC1` (stereo not shown) [Compound 125, 3-fluoro-N—[imidazolidin-2-ylidene]-4-({3-[(1-methylcyclopropyl)carbamoyl]phenyl}amino)-5-(oxolan-2-yl)benzamide], the EC50 turned out to be 19.1 nM.

For `N#CC1(NC(=O)c2cccc(Nc3c(F)cc(C(=O)N=C4NCCN4)cc3C3CC3)c2)CC1` [Compound 127, 4-({3-[(1-cyanocyclopropyl)carbamoyl]phenyl}amino)-3-cyclopropyl-5-fluoro-N-[imidazolidin-2-ylidene]benzamide], the EC50 worked out at 101 nM.

On to `CC(C)NC(=O)c1cc(F)cc(Nc2c(F)cc(C(=O)N=C3NCCN3)cc2C2CC2)c1` [Compound 128, 3-cyclopropyl-5-fluoro-4-({3-fluoro-5-[(propan-2-yl)carbamoyl]phenyl}amino)-N-[imidazolidin-2-ylidene]benzamide], for which the EC50 came out at 13.2 nM.

For the molecule `CC1(NC(=O)c2cccc(Nc3c(F)cc(C(=O)N=C4NCCN4)cc3C3CC3)c2Cl)CC1` [Compound 129, 4-({2-chloro-3-[(1-methylcyclopropyl)carbamoyl]phenyl}amino)-3-cyclopropyl-5-fluoro-N-[imidazolidin-2-ylidene]benzamide], the EC50 stood at 4.3 nM.

In the case of `CC(C)NC(=O)c1cccc(Nc2c(F)cc(C(=O)N=C3NCCN3)cc2C2CC2)c1F` [Compound 130, 3-cyclopropyl-5-fluoro-4-({2-fluoro-3-[(propan-2-yl)carbamoyl]phenyl}amino)-N-[imidazolidin-2-ylidene]benzamide], the EC50 was found to be 7.3 nM.

Consider `CC(C)NC(=O)c1cccc(Nc2cc(F)c(C(=O)N=C3NCCN3)cc2C2CC2)c1` [Compound 131, 5-cyclopropyl-2-fluoro-N-[imidazolidin-2-ylidene]-4-({3-[(propan-2-yl)carbamoyl]phenyl}amino)benzamide], for which the EC50 was determined as 77.9 nM.

As to `CC1(NC(=O)c2cccc(Nc3ccc(C(=O)N=C4NCCN4)cc3C(C)(C)C)c2Cl)CC1` [Compound 132, 3-tert-butyl-4-({2-chloro-3-[(1-methylcyclopropyl)carbamoyl]phenyl}amino)-N-[imidazolidin-2-ylidene]benzamide], the concentration for a half-maximal effect (EC50) amounted to 23.6 nM.

Regarding `O=C(N=C1NCCN1)c1cc(F)c(Nc2cccc(C(=O)N3CCOCC3)c2Cl)c(C2CCOC2)c1` (stereo not shown) [Compound 134, 4-{[2-chloro-3-(morpholine-4-carbonyl)phenyl]amino}-3-fluoro-N-[imidazolidin-2-ylidene]-5-(oxolan-3-yl)benzamide], the EC50 was determined as 39.2 nM.

In the case of `CC1(NC(=O)c2cccc(Nc3c(F)cc(C(=O)N=C4NCCN4)cc3C3CCCO3)c2Cl)CC1` (stereo not shown) [Compound 135, 4-({2-chloro-3-[(1-methylcyclopropyl)carbamoyl]phenyl}amino)-3-fluoro-N-[imidazolidin-2-ylidene]-5-(oxolan-2-yl)benzamide], the EC50 was found to be 28.7 nM.

These data come from patent publication US12617756B2 (ABIVAX, priority 2019, dated 2026).
